Experimental data reported in article PMC7265341, “Quantifying CDK inhibitor selectivity in live cells” (Nature Communications, 2020).
Where two headings read alike, the source gives them in different places.

Key:
CDK1/Cyclin E1 = CDK1/Cyclin E1 (Homo sapiens, UniProt P06493); assay: NanoBRET live-cell target engagement, CDK1-NanoLuc/Cyclin E1 in HEK-293; type: binding; conditions: CDK1/E1
CDK4/Cyclin D1 = CDK4/Cyclin D1 (Homo sapiens, UniProt P11802); assay: NanoBRET live-cell target engagement, NanoLuc-CDK4/Cyclin D1 in HEK-293; type: binding; conditions: CDK4/D1, 10µM
CDK5/CDK5R1 = CDK5/CDK5R1 (Homo sapiens, UniProt Q00535); assay: NanoBRET live-cell target engagement, CDK5-NanoLuc/CDK5R1 in HEK-293; type: binding; conditions: CDK5/CDK5R1, 10µM
CDK6/Cyclin D1 = CDK6/Cyclin D1 (Homo sapiens, UniProt Q00534); assay: NanoBRET live-cell target engagement, NanoLuc-CDK6/Cyclin D1 in HEK-293; type: binding; conditions: CDK6/D1
CDK7 = CDK7 (Homo sapiens, UniProt P50613); assay: NanoBRET live-cell target engagement, NanoLuc-CDK7 in HEK-293; type: binding; conditions: CDK7
CDK8/Cyclin C = CDK8/Cyclin C (Homo sapiens, UniProt P49336); assay: NanoBRET live-cell target engagement, NanoLuc-CDK8/Cyclin C in HEK-293; type: binding
CDK9/Cyclin K = CDK9/Cyclin K (Homo sapiens, UniProt P50750); assay: NanoBRET live-cell target engagement, NanoLuc-CDK9/Cyclin K in HEK-293; type: binding; conditions: CDK9/K, 10µM
CDK11A/Cyclin L2 = target: T1, CDK11A/Cyclin L2 (Homo sapiens, UniProt Q9UQ88); assay: NanoBRET live-cell target engagement, CDK11A-NanoLuc/Cyclin L2 in HEK-293; type: binding; conditions: CDK11a/L2, 10µM
T1 sequence (Q9UQ88 1-783): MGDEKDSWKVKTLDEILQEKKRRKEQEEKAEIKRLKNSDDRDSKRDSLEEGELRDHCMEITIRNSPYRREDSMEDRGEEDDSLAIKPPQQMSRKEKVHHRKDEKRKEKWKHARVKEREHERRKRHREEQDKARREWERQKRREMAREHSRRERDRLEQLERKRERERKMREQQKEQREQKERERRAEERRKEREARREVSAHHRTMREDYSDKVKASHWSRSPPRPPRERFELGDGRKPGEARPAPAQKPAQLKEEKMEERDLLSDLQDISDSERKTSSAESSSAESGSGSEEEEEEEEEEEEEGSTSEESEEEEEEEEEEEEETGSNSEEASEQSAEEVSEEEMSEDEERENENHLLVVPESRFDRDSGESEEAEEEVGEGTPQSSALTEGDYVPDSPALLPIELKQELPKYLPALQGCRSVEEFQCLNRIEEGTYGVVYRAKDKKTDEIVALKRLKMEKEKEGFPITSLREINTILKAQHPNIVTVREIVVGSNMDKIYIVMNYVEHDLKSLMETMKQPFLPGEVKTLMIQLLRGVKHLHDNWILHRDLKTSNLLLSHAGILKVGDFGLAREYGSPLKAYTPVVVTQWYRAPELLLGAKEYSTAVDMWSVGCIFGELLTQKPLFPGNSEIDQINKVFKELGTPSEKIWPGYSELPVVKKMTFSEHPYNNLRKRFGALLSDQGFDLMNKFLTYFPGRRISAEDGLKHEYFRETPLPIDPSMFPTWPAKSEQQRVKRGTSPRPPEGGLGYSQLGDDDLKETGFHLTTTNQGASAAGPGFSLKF

CDK11B/Cyclin L2 = CDK11B/Cyclin L2 (Homo sapiens, UniProt P21127); assay: NanoBRET live-cell target engagement, CDK11B-NanoLuc/Cyclin L2 in HEK-293; type: binding; conditions: CDK11b/L2, 10µM
CDK12/Cyclin K = CDK12/Cyclin K (Homo sapiens, UniProt Q9NYV4); assay: NanoBRET live-cell target engagement, CDK12-NanoLuc/Cyclin K in HEK-293; type: binding; conditions: CDK12/K, 10µM
CDK13/Cyclin K = CDK13/Cyclin K (Homo sapiens, UniProt Q14004); assay: NanoBRET live-cell target engagement, CDK13-NanoLuc/Cyclin K in HEK-293; type: binding; conditions: CDK13/K, 10µM
CDK14/Cyclin Y = CDK14/Cyclin Y (Homo sapiens, UniProt O94921); assay: NanoBRET live-cell target engagement, CDK14-NanoLuc/Cyclin Y in HEK-293; type: binding; conditions: CDK14/Y
CDK15/Cyclin Y = CDK15/Cyclin Y (Homo sapiens, UniProt Q96Q40); assay: NanoBRET live-cell target engagement, NanoLuc-CDK15/Cyclin Y in HEK-293; type: binding; conditions: CDK15/Y, 10µM
CDK16/Cyclin Y = CDK16/Cyclin Y (Homo sapiens, UniProt Q00536); assay: NanoBRET live-cell target engagement, CDK16-NanoLuc/Cyclin Y in HEK-293; type: binding; conditions: CDK16/Y
CDK17/Cyclin Y = CDK17/Cyclin Y (Homo sapiens, UniProt Q00537); assay: NanoBRET live-cell target engagement, CDK17-NanoLuc/Cyclin Y in HEK-293; type: binding; conditions: CDK17/Y, 10µM
CDK18/Cyclin Y = CDK18/Cyclin Y (Homo sapiens, UniProt Q07002); assay: NanoBRET live-cell target engagement, CDK18-NanoLuc/Cyclin Y in HEK-293; type: binding; conditions: CDK18/Y, 10µM
CDK20/Cyclin H = CDK20/Cyclin H (Homo sapiens, UniProt Q8IZL9); assay: NanoBRET live-cell target engagement, NanoLuc-CDK20/Cyclin H in HEK-293; type: binding; conditions: CDK20/H, 10µM
CDK19/Cyclin C = CDK19/Cyclin C (Homo sapiens, UniProt Q9BWU1); assay: NanoBRET live-cell target engagement, NanoLuc-CDK19/Cyclin C in HEK-293
CDK10/Cyclin L2 = CDK10/Cyclin L2 (Homo sapiens, UniProt Q15131); assay: NanoBRET live-cell target engagement, CDK10-NanoLuc/Cyclin L2 in HEK-293; conditions: 10µM
[1] = average of replicates, read-out: Inhibition at 10µM (%) Average
[2] = read-out: Inhibition at 10µM (%) Replicate 1
[3] = read-out: Inhibition at 10µM (%) Replicate 2
[4] = n=3 average ± SEM, n=2 average to 2 significant figures, read-out: IC50 (nM) Average*
[5] = read-out: IC50 (nM) Replicate 1
[6] = read-out: IC50 (nM) Replicate 2
[7] = read-out: IC50 (nM) Replicate 3

Sequence of CDK18/Cyclin Y (Q07002 whole entry): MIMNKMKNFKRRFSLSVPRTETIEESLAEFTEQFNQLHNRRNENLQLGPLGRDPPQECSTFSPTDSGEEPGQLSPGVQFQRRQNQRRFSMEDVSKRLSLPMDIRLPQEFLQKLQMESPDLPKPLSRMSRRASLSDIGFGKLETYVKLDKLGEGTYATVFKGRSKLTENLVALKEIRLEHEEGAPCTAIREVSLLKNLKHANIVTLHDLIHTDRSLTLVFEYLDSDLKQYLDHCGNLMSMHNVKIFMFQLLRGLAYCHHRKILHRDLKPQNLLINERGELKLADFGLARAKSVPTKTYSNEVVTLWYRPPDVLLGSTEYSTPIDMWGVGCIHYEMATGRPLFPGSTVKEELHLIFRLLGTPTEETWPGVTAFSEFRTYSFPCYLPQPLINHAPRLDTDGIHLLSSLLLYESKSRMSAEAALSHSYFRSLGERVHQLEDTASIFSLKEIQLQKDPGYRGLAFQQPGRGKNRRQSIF
Sequence of CDK18/Cyclin Y (Q8ND76 whole entry partner): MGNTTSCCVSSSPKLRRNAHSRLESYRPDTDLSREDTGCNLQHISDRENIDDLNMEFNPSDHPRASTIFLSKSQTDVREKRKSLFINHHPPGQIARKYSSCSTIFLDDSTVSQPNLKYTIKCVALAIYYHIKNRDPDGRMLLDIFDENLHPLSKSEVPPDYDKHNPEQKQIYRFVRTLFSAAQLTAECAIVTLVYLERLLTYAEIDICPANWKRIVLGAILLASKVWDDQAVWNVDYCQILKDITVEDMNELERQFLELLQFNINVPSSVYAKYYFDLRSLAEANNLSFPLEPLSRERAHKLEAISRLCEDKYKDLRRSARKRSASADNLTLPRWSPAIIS
Sequence of CDK16/Cyclin Y (Q00536 whole entry): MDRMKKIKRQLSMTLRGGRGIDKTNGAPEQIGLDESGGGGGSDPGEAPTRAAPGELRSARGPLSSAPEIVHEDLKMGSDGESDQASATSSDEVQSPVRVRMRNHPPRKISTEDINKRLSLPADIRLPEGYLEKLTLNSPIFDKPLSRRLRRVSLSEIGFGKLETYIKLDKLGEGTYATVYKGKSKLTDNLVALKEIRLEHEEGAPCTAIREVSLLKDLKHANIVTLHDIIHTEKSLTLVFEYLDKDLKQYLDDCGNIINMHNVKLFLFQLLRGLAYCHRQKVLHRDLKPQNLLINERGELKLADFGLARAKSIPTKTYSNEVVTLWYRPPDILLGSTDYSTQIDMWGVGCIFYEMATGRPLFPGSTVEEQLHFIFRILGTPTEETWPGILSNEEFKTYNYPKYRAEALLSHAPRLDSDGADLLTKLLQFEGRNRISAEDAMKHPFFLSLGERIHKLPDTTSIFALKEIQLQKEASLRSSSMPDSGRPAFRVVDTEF
Sequence of CDK16/Cyclin Y (Q8ND76 whole entry partner): as the sequence (Q8ND76 whole entry partner) above
Sequence of CDK5/CDK5R1 (Q00535 whole entry): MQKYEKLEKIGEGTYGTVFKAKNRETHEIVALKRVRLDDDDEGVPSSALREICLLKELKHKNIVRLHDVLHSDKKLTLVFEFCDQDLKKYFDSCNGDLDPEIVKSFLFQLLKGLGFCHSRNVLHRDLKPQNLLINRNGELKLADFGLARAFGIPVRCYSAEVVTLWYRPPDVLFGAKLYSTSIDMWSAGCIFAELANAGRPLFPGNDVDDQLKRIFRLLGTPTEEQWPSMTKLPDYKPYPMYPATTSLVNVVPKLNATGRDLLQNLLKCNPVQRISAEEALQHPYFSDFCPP
Sequence of CDK5/CDK5R1 (Q15078 whole entry partner): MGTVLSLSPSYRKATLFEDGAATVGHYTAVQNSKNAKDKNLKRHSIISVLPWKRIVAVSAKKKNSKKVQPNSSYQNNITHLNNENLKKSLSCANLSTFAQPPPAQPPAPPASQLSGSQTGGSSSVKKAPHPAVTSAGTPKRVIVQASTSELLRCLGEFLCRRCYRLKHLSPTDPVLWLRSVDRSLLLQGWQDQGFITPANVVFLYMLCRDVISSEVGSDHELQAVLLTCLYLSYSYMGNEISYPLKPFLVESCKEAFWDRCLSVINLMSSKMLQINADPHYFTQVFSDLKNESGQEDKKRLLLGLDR
Sequence of CDK19/Cyclin C (Q9BWU1 whole entry): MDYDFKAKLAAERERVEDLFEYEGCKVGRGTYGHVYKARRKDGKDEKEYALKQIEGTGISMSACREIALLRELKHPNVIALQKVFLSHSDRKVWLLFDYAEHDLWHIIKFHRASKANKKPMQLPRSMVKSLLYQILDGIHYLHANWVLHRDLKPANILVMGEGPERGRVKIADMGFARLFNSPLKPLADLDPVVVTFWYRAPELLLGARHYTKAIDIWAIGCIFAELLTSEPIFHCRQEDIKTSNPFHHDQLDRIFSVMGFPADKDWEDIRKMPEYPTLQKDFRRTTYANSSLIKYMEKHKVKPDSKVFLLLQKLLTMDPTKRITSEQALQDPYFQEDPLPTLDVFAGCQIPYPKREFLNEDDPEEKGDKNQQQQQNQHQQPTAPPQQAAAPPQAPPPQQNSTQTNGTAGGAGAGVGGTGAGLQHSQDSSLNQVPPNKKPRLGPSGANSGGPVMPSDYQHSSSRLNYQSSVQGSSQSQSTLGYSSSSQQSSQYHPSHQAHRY
Sequence of CDK19/Cyclin C (P24863 whole entry partner): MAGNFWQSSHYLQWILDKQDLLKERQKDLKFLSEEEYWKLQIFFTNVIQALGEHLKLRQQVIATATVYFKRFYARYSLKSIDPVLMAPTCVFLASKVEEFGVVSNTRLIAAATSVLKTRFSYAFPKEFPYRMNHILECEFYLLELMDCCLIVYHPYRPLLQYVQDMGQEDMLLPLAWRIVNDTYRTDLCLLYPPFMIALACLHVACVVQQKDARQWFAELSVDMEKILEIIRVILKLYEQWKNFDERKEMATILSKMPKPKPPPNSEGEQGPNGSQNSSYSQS
Sequence of CDK17/Cyclin Y (Q00537 whole entry): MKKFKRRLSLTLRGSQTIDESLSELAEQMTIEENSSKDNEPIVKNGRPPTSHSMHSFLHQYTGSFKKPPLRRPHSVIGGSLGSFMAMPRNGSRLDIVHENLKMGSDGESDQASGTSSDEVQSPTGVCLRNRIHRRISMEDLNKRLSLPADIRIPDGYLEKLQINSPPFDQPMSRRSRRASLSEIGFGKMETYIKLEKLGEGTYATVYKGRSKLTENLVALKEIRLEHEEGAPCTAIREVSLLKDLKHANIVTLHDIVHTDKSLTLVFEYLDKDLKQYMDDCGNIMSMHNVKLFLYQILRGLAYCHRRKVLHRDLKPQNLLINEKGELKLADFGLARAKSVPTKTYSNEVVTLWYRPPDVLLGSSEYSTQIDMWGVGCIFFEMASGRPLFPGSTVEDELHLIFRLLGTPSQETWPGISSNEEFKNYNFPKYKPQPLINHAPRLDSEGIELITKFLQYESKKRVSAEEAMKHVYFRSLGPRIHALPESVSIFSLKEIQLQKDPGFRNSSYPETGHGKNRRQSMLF
Sequence of CDK17/Cyclin Y (Q8ND76 whole entry partner): as the sequence (Q8ND76 whole entry partner) above
Sequence of CDK6/Cyclin D1 (Q00534 whole entry): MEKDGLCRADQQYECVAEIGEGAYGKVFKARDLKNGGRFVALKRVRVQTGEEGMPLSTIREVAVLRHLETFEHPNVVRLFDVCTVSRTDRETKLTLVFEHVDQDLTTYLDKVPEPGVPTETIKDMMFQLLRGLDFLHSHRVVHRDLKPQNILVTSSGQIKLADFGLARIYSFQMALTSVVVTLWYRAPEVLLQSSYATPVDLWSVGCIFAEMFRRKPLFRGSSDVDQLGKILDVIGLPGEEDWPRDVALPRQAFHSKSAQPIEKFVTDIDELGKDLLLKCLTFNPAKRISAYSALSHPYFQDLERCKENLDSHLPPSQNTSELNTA
Sequence of CDK6/Cyclin D1 (P24385 whole entry partner): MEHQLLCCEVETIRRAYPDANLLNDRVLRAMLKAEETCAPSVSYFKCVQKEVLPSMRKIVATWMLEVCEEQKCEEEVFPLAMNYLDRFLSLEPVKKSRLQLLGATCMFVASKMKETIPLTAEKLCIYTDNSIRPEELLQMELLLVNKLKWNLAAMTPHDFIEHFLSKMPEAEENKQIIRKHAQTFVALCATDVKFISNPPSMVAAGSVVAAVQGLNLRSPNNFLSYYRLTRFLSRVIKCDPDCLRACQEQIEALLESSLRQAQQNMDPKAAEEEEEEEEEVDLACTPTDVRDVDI
Sequence of CDK4/Cyclin D1 (P11802 whole entry): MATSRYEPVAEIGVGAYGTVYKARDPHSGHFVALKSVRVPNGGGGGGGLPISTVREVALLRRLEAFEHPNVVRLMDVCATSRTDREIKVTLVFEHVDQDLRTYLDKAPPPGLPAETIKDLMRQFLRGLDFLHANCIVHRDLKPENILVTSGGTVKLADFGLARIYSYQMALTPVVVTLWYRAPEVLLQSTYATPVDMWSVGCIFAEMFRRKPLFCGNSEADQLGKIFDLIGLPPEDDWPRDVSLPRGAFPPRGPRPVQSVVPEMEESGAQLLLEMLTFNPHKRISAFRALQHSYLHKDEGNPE
Sequence of CDK4/Cyclin D1 (P24385 whole entry partner): as the sequence (P24385 whole entry partner) above
Sequence of CDK7 (P50613 whole entry): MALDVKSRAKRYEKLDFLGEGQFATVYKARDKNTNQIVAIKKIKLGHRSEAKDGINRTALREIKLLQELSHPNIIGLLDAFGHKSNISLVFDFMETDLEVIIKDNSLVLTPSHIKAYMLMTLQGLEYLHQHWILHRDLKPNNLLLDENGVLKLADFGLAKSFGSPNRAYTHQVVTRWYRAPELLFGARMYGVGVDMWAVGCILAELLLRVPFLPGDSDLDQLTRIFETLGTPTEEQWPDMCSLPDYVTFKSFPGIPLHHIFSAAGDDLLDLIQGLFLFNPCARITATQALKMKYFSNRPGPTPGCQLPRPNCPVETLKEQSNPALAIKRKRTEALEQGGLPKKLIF

CCCCOc1c(C(=O)c2c(F)cc(C)cc2F)c[nH]c2nncc1-2 [BMS-265246]
inhibition at 10 µM (CDK1/Cyclin E1; [1]): 44.4% | inhibition at 10 µM (CDK1/Cyclin E1; [2]): 65.6% | inhibition at 10 µM (CDK1/Cyclin E1; [3]): 23.1% | IC50 (CDK1/Cyclin E1; [4]): 50 ± 20 nM | IC50 (CDK1/Cyclin E1; [5]): 95 nM | IC50 (CDK1/Cyclin E1; [6]): 39 nM | IC50 (CDK1/Cyclin E1; [7]): 11 nM | inhibition at 10 µM (CDK4/Cyclin D1; [1]): 49.1% | inhibition at 10 µM (CDK4/Cyclin D1; [2]): 49% | inhibition at 10 µM (CDK4/Cyclin D1; [3]): 49.3% | inhibition at 10 µM (CDK5/CDK5R1; [1]): 35.1% | inhibition at 10 µM (CDK5/CDK5R1; [2]): 36.3% | inhibition at 10 µM (CDK5/CDK5R1; [3]): 33.9% | inhibition at 10 µM (CDK6/Cyclin D1; [1]): 68% | inhibition at 10 µM (CDK6/Cyclin D1; [2]): 64.1% | inhibition at 10 µM (CDK6/Cyclin D1; [3]): 71.8% | IC50 (CDK6/Cyclin D1; [4]): 100 ± 30 nM | IC50 (CDK6/Cyclin D1; [5]): 63 nM | IC50 (CDK6/Cyclin D1; [6]): 70 nM | IC50 (CDK6/Cyclin D1; [7]): 152 nM | inhibition at 10 µM (CDK7; [1]): 43.7% | inhibition at 10 µM (CDK7; [2]): 21% | inhibition at 10 µM (CDK7; [3]): 66.3% | IC50 (CDK7; [4]): 180 ± 10 nM | IC50 (CDK7; [5]): 160 nM | IC50 (CDK7; [6]): 170 nM | IC50 (CDK7; [7]): 197 nM | inhibition at 10 µM (CDK8/Cyclin C; CDK8/C, average of replicates, read-out: Inhibition at 10µM (%) Average): 95.1% | inhibition at 10 µM (CDK8/Cyclin C; CDK8/C, read-out: Inhibition at 10µM (%) Replicate 1): 97.6% | inhibition at 10 µM (CDK8/Cyclin C; CDK8/C, read-out: Inhibition at 10µM (%) Replicate 2): 92.5% | IC50 (CDK8/Cyclin C; CDK8/C, read-out: IC50 (nM) Replicate 1): 1.2 nM | IC50 (CDK8/Cyclin C; CDK8/C, read-out: IC50 (nM) Replicate 2): 0.45 nM | IC50 (CDK8/Cyclin C; CDK8/C, read-out: IC50 (nM) Replicate 3): 0.5 nM | IC50 (CDK8/Cyclin C; live HEK-293, 2 h, mean ± S.E.M. (n=3) or mean (n=2), read-out: IC50 for CDK/cyclin complexes, CDK8/C): 0.7 nM | Kd (CDK8/Cyclin C; live HEK-293, read-out: Kd-apparent, CDK8 live-cell occupancy): < 2 nM | inhibition at 10 µM (CDK9/Cyclin K; [1]): 26.1% | inhibition at 10 µM (CDK9/Cyclin K; [2]): 31% | inhibition at 10 µM (CDK9/Cyclin K; [3]): 21.3% | inhibition at 10 µM (CDK11A/Cyclin L2; [1]): 8.4% | inhibition at 10 µM (CDK11A/Cyclin L2; [2]): 3.6% | inhibition at 10 µM (CDK11A/Cyclin L2; [3]): 13.2% | inhibition at 10 µM (CDK11B/Cyclin L2; [1]): 11.8% | inhibition at 10 µM (CDK11B/Cyclin L2; [2]): 9.8% | inhibition at 10 µM (CDK11B/Cyclin L2; [3]): 13.8% | inhibition at 10 µM (CDK12/Cyclin K; [1]): 5.2% | inhibition at 10 µM (CDK12/Cyclin K; [2]): 12.3% | inhibition at 10 µM (CDK12/Cyclin K; [3]): -1.9% | inhibition at 10 µM (CDK13/Cyclin K; [1]): 12.6% | inhibition at 10 µM (CDK13/Cyclin K; [2]): 10.5% | inhibition at 10 µM (CDK13/Cyclin K; [3]): 14.7% | inhibition at 10 µM (CDK14/Cyclin Y; [1]): 43.5% | inhibition at 10 µM (CDK14/Cyclin Y; [2]): 68.1% | inhibition at 10 µM (CDK14/Cyclin Y; [3]): 18.8% | IC50 (CDK14/Cyclin Y; [4]): 200 ± 200 nM | IC50 (CDK14/Cyclin Y; [5]): 10 nM | IC50 (CDK14/Cyclin Y; [6]): 100 nM | IC50 (CDK14/Cyclin Y; [7]): 570 nM | inhibition at 10 µM (CDK15/Cyclin Y; [1]): 35.1% | inhibition at 10 µM (CDK15/Cyclin Y; [2]): 51.3% | inhibition at 10 µM (CDK15/Cyclin Y; [3]): 19% | inhibition at 10 µM (CDK16/Cyclin Y; [2]): 70.8% | inhibition at 10 µM (CDK16/Cyclin Y; [3]): 76.5% | IC50 (CDK16/Cyclin Y; [4]): 50 ± 20 nM | IC50 (CDK16/Cyclin Y; [5]): 5.7 nM | IC50 (CDK16/Cyclin Y; [6]): 63 nM | IC50 (CDK16/Cyclin Y; [7]): 79 nM | inhibition at 10 µM (CDK17/Cyclin Y; [1]): 75.2% | inhibition at 10 µM (CDK17/Cyclin Y; [2]): 71.1% | inhibition at 10 µM (CDK17/Cyclin Y; [3]): 79.2% | inhibition at 10 µM (CDK18/Cyclin Y; [1]): 89.2% | inhibition at 10 µM (CDK18/Cyclin Y; [2]): 86.5% | inhibition at 10 µM (CDK18/Cyclin Y; [3]): 92% | inhibition at 10 µM (CDK20/Cyclin H; [2]): 14.5% | inhibition at 10 µM (CDK20/Cyclin H; [3]): -14.1% | Kd (CDK19/Cyclin C): < 2 nM | IC50 (CDK19/Cyclin C; IC50 (nM) Average*, CDK19/Y, n=3 average ± SEM, n=2 average to 2 significant figures): 1.47 ± 0.09 nM | IC50 (CDK19/Cyclin C; IC50 (nM) Replicate 2, CDK19/C): 1.6 nM | IC50 (CDK19/Cyclin C; IC50 (nM) Replicate 3, CDK19/C): 1.3 nM | IC50 (CDK19/Cyclin C; IC50 for CDK/cyclin complexes, CDK19/C, live HEK-293, 2 h, mean ± S.E.M. (n=3) or mean (n=2)): 1.5 nM | inhibition at 10 µM (CDK19/Cyclin C; read-out: Inhibition at 10µM (%) Average, CDK19/C, average of replicates): 95.1% | inhibition at 10 µM (CDK19/Cyclin C; read-out: Inhibition at 10µM (%) Replicate 1, CDK19/C): 98.1% | inhibition at 10 µM (CDK19/Cyclin C; read-out: Inhibition at 10µM (%) Replicate 2, CDK19/C): 92.2% | inhibition at 10 µM (CDK10/Cyclin L2; read-out: Inhibition at 10µM (%) Average, CDK10/L2, average of replicates): 11.1% | inhibition at 10 µM (CDK10/Cyclin L2; read-out: Inhibition at 10µM (%) Replicate 1, CDK10/L2): 5.3% | inhibition at 10 µM (CDK10/Cyclin L2; read-out: Inhibition at 10µM (%) Replicate 2, CDK10/L2): 17%
